Data taken from patent US7153884B2, “C-2′ methylated derivatives of paclitaxel for use as antitumour agents” (Indena S.p.A., priority 2001, dated 2006).

Assays:
Format in all cases: cell-based
A2780tax cell line = assay: Cell viability by ATP dosage (ATPlite), 72 h continuous exposure, A2780tax; details: A2780tax cells, continuous exposure 72 hours, viable cells by ATP dosage
Experimental: (§1) Pharmacological experimentation was carried out on the compounds of the invention at a 0.1% concentration in dimethylsulfoxide. A2780wt, A2780cis, A2780adr and A2780tax cell lines were used. Cells were plated on 96 well flat bottom plates (Viewplates, Packard). After 24-hours, the culture medium was replaced and, after washing, media containing the tested compounds were added. A dose-response logarithmic curve was established in quadruplicate for each plate, starting from […]. Each assay was effected in duplicate three times. After 72 hour-culture in the presence of the tested compounds, the cells were collected and the number of viable cells was evaluated by ATP dosage, using the ATPlite kit (Packard, Meridien, Mo., USA) and the Topcount (Packard) automated luminometer. For each drug/cell line, the dose-response curve was plotted and the IC50 values were calculated from the concentration-effect curve obtained in three tests with the sigmoid-Emax model using non-linear regression, weighted by the reciprocal of the square of the predicted effect.

A2780wt cell line = assay: Cell viability by ATP dosage (ATPlite), 72 h continuous exposure, A2780wt; details: A2780wt cells, continuous exposure 72 hours, viable cells by ATP dosage
Experimental: as §1

A2780cis cell line = assay: Cell viability by ATP dosage (ATPlite), 72 h continuous exposure, A2780cis; details: A2780cis cells, continuous exposure 72 hours, viable cells by ATP dosage
Experimental: as §1

A2780adr cell line = assay: Cell viability by ATP dosage (ATPlite), 72 h continuous exposure, A2780adr; details: A2780adr cells, continuous exposure 72 hours, viable cells by ATP dosage
Experimental: as §1

Row | Compound | IC50 (A2780tax cell line) [nM] | IC50 (A2780wt cell line) [nM] | IC50 (A2780cis cell line) [nM] | IC50 (A2780adr cell line) [nM]
1 | CC(=O)O[C@H]1C(=O)[C@@]2(C)[C@H]([C@H](OC(=O)c3ccccc3)[C@]34OC(=O)O[C@H]3[C@H](OC(=O)[C@](C)(O)[C@@H](NC(=O)OC(C)(C)C)c3ccco3)C(C)=C1C4(C)C)[C@]1(OC(C)=O)CO[C@@H]1C[C@@H]2O [Es. 4, (2′R,3′R)-13-[N-Boc-2-methyl-3-(2-furanyl)isoserinoyl]-14β-hydroxybaccatin III 1,14-carbonate] | 30.9 ± 3.7 | 5.9 ± 0.7 | 2.5 ± 0.3 | 27.1 ± 10.1
2 | CC(=O)O[C@H]1C(=O)[C@@]2(C)[C@H]([C@H](OC(=O)c3ccccc3)[C@]3(O)C[C@H](OC(=O)[C@](C)(O)[C@@H](NC(=O)OC(C)(C)C)c4ccco4)C(C)=C1C3(C)C)[C@]1(OC(C)=O)CO[C@@H]1C[C@@H]2O [Es. 3, (2′R,3′R)-13-[N-Boc-2-methyl-3-(2-furanyl)-isoserinoyl]-baccatin III] | 312 ± 61 | 2.9 ± 0.1 | 3.3 ± 0.2 | 41.3 ± 7.4
3 | CC(=O)O[C@H]1C(=O)[C@@]2(C)[C@H]([C@H](OC(=O)c3ccccc3)[C@]34OC(=O)O[C@H]3[C@H](OC(=O)[C@](C)(O)[C@@H](NC(=O)OC(C)(C)C)c3ccccc3)C(C)=C1C4(C)C)[C@]1(OC(C)=O)CO[C@@H]1C[C@@H]2O [Es. 2, (2′R,3′S)-13-(N-Boc-2-methyl-3-phenylisoserinoyl)-14β-hydroxybaccatin III 1,14-carbonate] | 299 ± 77 | 2.53 ± 1.47 | 1.7 ± 0.4 | 52.9 ± 16.2
4 | CC(=O)O[C@H]1C(=O)[C@@]2(C)[C@H]([C@H](OC(=O)c3ccccc3)[C@]34OC(=O)O[C@H]3[C@H](OC(=O)[C@](C)(O)[C@@H](NC(=O)OC(C)(C)C)C(F)(F)F)C(C)=C1C4(C)C)[C@]1(OC(C)=O)CO[C@@H]1C[C@@H]2O [Es. 5, (2′R,3′R)-13-[N-Boc-2-methyl-3-trifluoromethylisoserinoyl]-14β-hydroxybaccatin III 1,14-carbonate] | 285 ± 60 | 4.64 ± 2.58 | 2.8 ± 0.6 | 79.3 ± 19.9
5 | CC(=O)OC1C(=O)C2(C)C(O)CC3OCC3(OC(C)=O)C2C(OC(=O)c2ccccc2)C2(O)CC(OC(=O)C(C)(O)C(NC(=O)c3ccccc3)c3ccco3)C(C)=C1C2(C)C (stereo not drawn) [Es. 1, (2′R,3′R)-3′-dephenyl-3′-(2-furyl)-2′-methyl-paclitaxel] | 420 ± 93 | 3.1 ± 0.2 | 2.9 ± 0.1 | 61.4 ± 3.9
6 | (2′R,3′R)-13-[N-Boc-2-methyl-3-(2-thienyl)isoserinoyl]-14β-hydroxybaccatin III 1,14-carbonate [Es. 6] | 160 ± 32 | 3.7 ± 0.4 | 2.9 ± 0.2 | 93.2 ± 20.4
